Laboratory results as given in patent US5237060A, “Process of preparing enantiomerically pure 1,8-bridged 4-quinolone-3-carboxylic acids” (Bayer Aktiengesellschaft, priority 1985, dated 1993).
In brackets after ≈: the same amount, converted by molar mass. Where two headings read alike, the source gives them in different places.

Legend:
Test in all cases: MIC, agar dilution test (isosensitest medium)
Type in all cases: cell-based
E. coli A 261 = conditions: Escherichia coli, A261
Excerpt: (§1) Agar dilution test (isosensitest medium); Denley multipoint inoculator

Klebsiella 63 = system: Klebsiella 63
Excerpt: as §1

Strepto 9790 = system: Strepto 9790
Excerpt: as §1

Staph. 1756 = system: Staph. 1756
Excerpt: as §1

Providencia 12012 = system: Providencia 12012
Excerpt: as §1

Proteus 1875 = system: Proteus 1875
Excerpt: as §1

E. coli T 7 = conditions: Escherichia coli, T7
Excerpt: as §1

Klebsiella 57 USA = system: Klebsiella 57 USA
Excerpt: as §1

E. coli 4418 = conditions: Escherichia coli
Excerpt: as §1

Klebsiella 6318 = system: Klebsiella 6318
Excerpt: as §1

Pseudomonas Ellsworth = system: Pseudomonas Ellsworth
Excerpt: as §1

Pseudomonas Walter = system: Pseudomonas Walter
Excerpt: as §1

Staph. 133 = system: Staph. 133
Excerpt: as §1

Staph. F 422 = system: Staph. F 422
Excerpt: as §1

Proteus Vulg. 1017 = system: Proteus Vulg. 1017
Excerpt: as §1

[1] = Klebsiella 63, agar dilution, read-out: MIC
[2] = Proteus 1875, agar dilution, read-out: MIC
[3] = Proteus Vulg. 1017, agar dilution, read-out: MIC
[4] = Klebsiella 57 USA, agar dilution, read-out: MIC
[5] = E. coli 4418, agar dilution, read-out: MIC
[6] = Klebsiella 6318, agar dilution, read-out: MIC

| Compound | MIC (E. coli A 261) [µg/mL] | MIC (Klebsiella 63; [1]) [µg/mL] | MIC (Strepto 9790) [µg/mL] | MIC (Staph. 1756) [µg/mL] | MIC (Providencia 12012) [µg/mL] | MIC (Proteus 1875; [2]) [µg/mL] | MIC (E. coli T 7) [µg/mL] | MIC (Pseudomonas Ellsworth) [µg/mL] | MIC (Pseudomonas Walter) [µg/mL] | MIC (Staph. 133) [µg/mL] | MIC (Staph. F 422) [µg/mL] | MIC (Proteus Vulg. 1017; [3]) [µg/mL] | MIC (Klebsiella 57 USA; [4]) [µg/mL] | MIC (E. coli 4418; [5]) [µg/mL] | MIC (Klebsiella 6318; [6]) [µg/mL] | further results |
| --- | --- | --- | --- | --- | --- | --- | --- | --- | --- | --- | --- | --- | --- | --- | --- | --- |
| C[C@H]1COc2c(N3CCN(C)CC3)c(F)cc3c(=O)c(C(=O)O)cn1c23 [Example 4, 3S-9-fluoro-3-methyl-10(4-methyl-1-piperazinyl)-7-oxo-7H-pyrido[1,2,3-de][1,4]-benzoxazine-6-carboxylic acid] | ≤ 0.015 | 0.06 (≈ 0.166 µM) | 1 (≈ 2.77 µM) | 0.25 (≈ 0.692 µM) | 0.06 (≈ 0.166 µM) | 0.06 (≈ 0.166 µM) | 0.03 (≈ 0.083 µM) | 0.25 (≈ 0.692 µM) | 1 (≈ 2.77 µM) | 0.25 (≈ 0.692 µM) | 0.25 (≈ 0.692 µM) | 0.06 (≈ 0.166 µM) |  |  |  | MIC (Klebsiella 57 USA; Klebsiella, 57USA): 0.125 µg/mL (≈ 0.346 µM); MIC (E. coli 4418; 4418): 0.125 µg/mL (≈ 0.346 µM); MIC (Klebsiella 6318; Klebsiella, 6318): 0.125 µg/mL (≈ 0.346 µM) |
| C[C@@H]1COc2c(N3CCN(C)CC3)c(F)cc3c(=O)c(C(=O)O)cn1c23 [Example 16, 3R-9-fluoro-3-methyl-10(4-methyl-1-piperazinyl)-7-oxo-7H-pyrido[1,2,3-de][1,4]-benzoxazine-6-carboxylic acid] | 0.25 (≈ 0.692 µM) | 2 (≈ 5.53 µM) | 32 (≈ 88.6 µM) | 8 (≈ 22.1 µM) | 4 (≈ 11.1 µM) | 4 (≈ 11.1 µM) | 1 (≈ 2.77 µM) | 4 (≈ 11.1 µM) | 32 (≈ 88.6 µM) | 8 (≈ 22.1 µM) | 16 (≈ 44.3 µM) | 2 (≈ 5.53 µM) | 4 (≈ 11.1 µM) | 2 (≈ 5.53 µM) | 4 (≈ 11.1 µM) |  |
| CC1COc2c(N3CCN(C)CC3)c(F)cc3c(=O)c(C(=O)O)cn1c23 (racemic) [Ofloxacin, reference compound] | 0.03 (≈ 0.083 µM) |  | 2 (≈ 5.53 µM) | 0.5 (≈ 1.38 µM) | 0.25 (≈ 0.692 µM) |  | 0.06 (≈ 0.166 µM) | 0.5 (≈ 1.38 µM) | 2 (≈ 5.53 µM) | 0.5 (≈ 1.38 µM) | 0.5 (≈ 1.38 µM) |  | 0.25 (≈ 0.692 µM) | 0.25 (≈ 0.692 µM) | 0.25 (≈ 0.692 µM) | MIC (Klebsiella 63; Klebsiella, 63): 0.125 µg/mL (≈ 0.346 µM); MIC (Proteus 1875): 0.125 µg/mL (≈ 0.346 µM); MIC (Proteus Vulg. 1017): 0.125 µg/mL (≈ 0.346 µM) |
